The nature of assay [1]: Luminescence Cell-Based Dose Confirmation HTS to Identify Inhibitors of Platelet Dense Granule Release. [Related pubchem assays: 1663 (Primary HTS), 1678 (Summary of Project)]. The format is functional.
Assay [2] concerns the target Luciferin 4-monooxygenase (Photinus pyralis, UniProt P08659). Put plainly: firefly luciferase enzyme inhibitors, dose response, biochemical, luminescence (AID 1891).
In another assay the test system is Streptococcus. Put plainly: Group A Streptococcus viability loss, dose response, counter-screen for streptokinase expression inhibitor project, luminescence, BacTiterGlo (AID 1915).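 Further: potency for reduction of bacterial viability or growth.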 The format is functional, organism-based.
The target in another assay is T1, Streptokinase A (Streptococcus pyogenes serotype M1, UniProt P10520).
T1 sequence (P10520 whole entry): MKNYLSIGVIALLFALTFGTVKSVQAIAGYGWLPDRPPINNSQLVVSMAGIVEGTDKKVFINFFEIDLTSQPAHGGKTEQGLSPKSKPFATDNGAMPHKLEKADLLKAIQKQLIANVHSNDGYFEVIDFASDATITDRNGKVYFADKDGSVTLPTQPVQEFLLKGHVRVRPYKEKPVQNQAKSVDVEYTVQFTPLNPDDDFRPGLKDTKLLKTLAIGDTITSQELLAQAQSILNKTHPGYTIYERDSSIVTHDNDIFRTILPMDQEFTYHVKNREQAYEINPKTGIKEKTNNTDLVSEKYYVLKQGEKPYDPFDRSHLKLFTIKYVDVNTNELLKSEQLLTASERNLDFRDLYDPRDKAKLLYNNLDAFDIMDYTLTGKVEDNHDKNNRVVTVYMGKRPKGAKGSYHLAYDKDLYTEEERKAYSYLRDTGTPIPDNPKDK
The assay can be described thus: S. pyogenes streptokinase expression inhibitors, potency, dose response, plasminogen activation absorbance, OD405 (AID 1914).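 Further: secreted streptokinase activity via plasminogen activation per viability signal from cell pellet.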 Type of assay: functional, Streptococcus pyogenes M1 GAS.

The test system of assay [3] is Streptococcus sp. 'group A'. The assay can be described thus: growth inhibition of control SK(-) GAS strain, dose response, counter-screen for streptokinase expression inhibitor project, luminescence, kanamycin, BacTiterGlo, confirmation (AID 1900). Type of assay: functional, organism-based.
A short description of assay [4]: inhibitors of intracellular T. cruzi replication, confirmation, NIH3T3 host cells, beta-gal luminescence (AID 2044).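 Further: intracellular parasites grown in NIH/3T3 mouse fibroblasts as host cells; luminescent beta-galactosidase reporter signal from transgenic T. cruzi replicating inside host cells; inhibitors lower the luminescence signal.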 Type of assay: functional, cell-based.
The nature of assay [5]: cytotoxicity toward NIH3T3 fibroblasts, dose response, counter-screen, cell-based, ATP luminescence, mouse fibroblasts (AID 2010).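 Further: cells exposed to compound for about 90 hours before reading.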 Type of assay: functional.
Assay [6] addresses T2, Corticotropin-releasing factor receptor 2/Corticotropin-releasing factor-binding protein (Homo sapiens, UniProt P24387+Q13324).
T2 sequence (Q13324 whole entry): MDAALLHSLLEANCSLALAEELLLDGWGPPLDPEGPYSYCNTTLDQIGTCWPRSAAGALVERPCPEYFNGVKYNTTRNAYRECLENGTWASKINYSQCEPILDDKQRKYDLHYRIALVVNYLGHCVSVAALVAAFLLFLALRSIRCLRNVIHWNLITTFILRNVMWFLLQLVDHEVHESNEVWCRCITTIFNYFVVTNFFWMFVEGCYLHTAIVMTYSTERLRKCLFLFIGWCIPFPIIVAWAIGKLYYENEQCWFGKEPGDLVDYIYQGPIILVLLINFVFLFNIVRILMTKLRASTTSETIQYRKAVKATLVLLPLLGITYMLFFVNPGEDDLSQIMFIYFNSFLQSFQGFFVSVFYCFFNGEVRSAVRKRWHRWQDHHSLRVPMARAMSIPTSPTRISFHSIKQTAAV
T2 sequence (P24387 whole entry): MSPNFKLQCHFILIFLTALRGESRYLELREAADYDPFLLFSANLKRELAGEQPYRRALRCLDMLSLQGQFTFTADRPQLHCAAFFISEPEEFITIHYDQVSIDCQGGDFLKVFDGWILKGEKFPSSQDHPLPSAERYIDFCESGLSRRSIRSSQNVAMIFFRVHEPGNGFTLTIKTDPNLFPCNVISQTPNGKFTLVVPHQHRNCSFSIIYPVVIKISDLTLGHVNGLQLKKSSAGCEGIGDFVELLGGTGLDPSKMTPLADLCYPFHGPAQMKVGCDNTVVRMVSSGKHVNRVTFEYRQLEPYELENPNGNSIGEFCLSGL
Put plainly: activators of CRF receptor 2 with binding protein – uHTS hits, confirmation (AID 602473). Type of assay: functional. Particulars: read-out: EC50_Mean.

The target in assay [7] is T2, Corticotropin-releasing factor receptor 2/Corticotropin-releasing factor-binding protein. The assay can be described thus: Dose Response confirmation of uHTS hits for small molecule antagonists of the CRF-binding protein and CRF-R2 receptor complex. The format is functional. Particulars: read-out: IC50_Mean.
For a further assay, the target named is Cytochrome P450 2C9 (Homo sapiens, UniProt P11712).
Cytochrome P450 2C9, sequence (P11712 whole entry): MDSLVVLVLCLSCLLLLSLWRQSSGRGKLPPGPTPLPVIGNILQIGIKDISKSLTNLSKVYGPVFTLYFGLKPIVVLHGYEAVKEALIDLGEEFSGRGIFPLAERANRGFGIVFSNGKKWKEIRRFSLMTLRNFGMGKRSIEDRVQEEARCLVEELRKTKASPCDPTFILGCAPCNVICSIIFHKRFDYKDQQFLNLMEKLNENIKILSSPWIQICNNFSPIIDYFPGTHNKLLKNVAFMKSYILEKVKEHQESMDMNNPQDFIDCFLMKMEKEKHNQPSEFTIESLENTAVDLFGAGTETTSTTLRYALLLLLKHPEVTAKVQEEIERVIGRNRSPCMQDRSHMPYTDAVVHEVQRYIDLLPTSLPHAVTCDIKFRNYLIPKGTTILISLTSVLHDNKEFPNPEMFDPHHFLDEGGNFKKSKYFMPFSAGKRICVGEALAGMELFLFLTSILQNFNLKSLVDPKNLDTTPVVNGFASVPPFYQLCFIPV
The target of another assay is Cytochrome P450 2D6 (Homo sapiens, UniProt P10635).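 Further: CYP2D6 member of a cytochrome P450 panel assay.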
Cytochrome P450 2D6, sequence (P10635 whole entry): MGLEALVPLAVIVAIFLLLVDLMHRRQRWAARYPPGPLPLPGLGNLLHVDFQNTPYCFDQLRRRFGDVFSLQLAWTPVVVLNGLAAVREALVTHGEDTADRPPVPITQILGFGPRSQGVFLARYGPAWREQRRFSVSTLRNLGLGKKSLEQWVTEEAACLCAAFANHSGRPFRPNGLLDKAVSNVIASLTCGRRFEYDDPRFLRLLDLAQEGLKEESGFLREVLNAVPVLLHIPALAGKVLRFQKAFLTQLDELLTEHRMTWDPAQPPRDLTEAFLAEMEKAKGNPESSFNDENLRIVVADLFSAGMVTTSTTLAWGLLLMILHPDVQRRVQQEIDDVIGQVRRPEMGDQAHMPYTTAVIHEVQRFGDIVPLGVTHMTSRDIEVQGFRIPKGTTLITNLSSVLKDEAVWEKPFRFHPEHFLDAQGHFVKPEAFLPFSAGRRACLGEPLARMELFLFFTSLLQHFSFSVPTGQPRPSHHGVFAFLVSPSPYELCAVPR
A further assay deals with Cytochrome P450 2C19 (Homo sapiens, UniProt P33261). Put plainly: Cytochrome panel assay with activity outcomes. Panel member name: p450-cyp2c19 Compounds with AC50 equal or less than 10 uM are considered active. Type of assay: functional. Conditions: read-out: AC50.
Cytochrome P450 2C19, sequence (P33261 whole entry): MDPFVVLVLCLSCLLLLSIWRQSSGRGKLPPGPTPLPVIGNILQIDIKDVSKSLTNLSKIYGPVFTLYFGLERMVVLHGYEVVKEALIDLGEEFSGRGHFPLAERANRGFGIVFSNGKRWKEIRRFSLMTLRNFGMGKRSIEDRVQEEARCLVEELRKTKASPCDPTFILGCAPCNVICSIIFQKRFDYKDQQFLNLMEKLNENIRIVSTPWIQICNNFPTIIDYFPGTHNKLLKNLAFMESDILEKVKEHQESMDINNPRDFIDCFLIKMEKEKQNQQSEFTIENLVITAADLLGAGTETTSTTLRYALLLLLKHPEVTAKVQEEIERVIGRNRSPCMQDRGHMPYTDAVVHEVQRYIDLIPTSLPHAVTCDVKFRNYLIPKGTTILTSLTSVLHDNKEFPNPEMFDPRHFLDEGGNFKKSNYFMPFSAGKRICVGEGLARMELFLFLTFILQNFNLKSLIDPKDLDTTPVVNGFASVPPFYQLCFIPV

Calls of active or inactive are those of the source. Some results are limits rather than exact numbers.

Luciferin 4-monooxygenase, sequence (P08659 whole entry): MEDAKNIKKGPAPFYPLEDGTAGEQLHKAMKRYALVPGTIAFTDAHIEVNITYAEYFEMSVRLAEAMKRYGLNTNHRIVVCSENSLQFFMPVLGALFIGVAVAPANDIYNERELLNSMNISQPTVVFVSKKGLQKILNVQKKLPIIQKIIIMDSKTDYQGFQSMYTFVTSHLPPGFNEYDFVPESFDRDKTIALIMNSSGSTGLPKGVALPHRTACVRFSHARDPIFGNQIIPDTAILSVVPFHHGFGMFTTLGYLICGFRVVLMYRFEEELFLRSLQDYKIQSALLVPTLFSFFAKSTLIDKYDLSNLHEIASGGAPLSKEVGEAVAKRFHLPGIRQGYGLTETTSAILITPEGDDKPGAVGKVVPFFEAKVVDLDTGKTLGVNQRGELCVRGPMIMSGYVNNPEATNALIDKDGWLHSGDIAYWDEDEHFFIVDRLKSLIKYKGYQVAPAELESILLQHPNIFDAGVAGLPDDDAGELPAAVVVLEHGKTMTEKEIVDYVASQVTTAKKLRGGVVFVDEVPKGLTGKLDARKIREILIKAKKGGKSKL

As to `Cc1ccc(SC(C)C(=O)Nc2ccccc2C(=O)N2CCOCC2)cc1` (configuration not stated), the EC50 in assay [1] and in assay [2] was > 112 µM (not active) each time.
Regarding `CC(C)S(=O)(=O)c1csc(C(=O)Nc2ccc(F)cc2)c1N`, the values for the EC50 in assay [1] and in assay [2] were < 0.701 µM (active) and 2.33 µM (active), respectively.
As for `Clc1cccc(Cl)c1C1Nc2cccc3cccc(c23)N1`, the figures for the EC50 (with Streptococcus; at Streptokinase A; in assay [3]) were 19.1 µM (active), > 50 µM (not active) and 5.07 µM (active), respectively.
For the compound `CCOc1cc(CNCCN2CCOCC2)ccc1OCc1ccccc1Cl`, the EC50 in assay [4] was 0.125 µM (active); in assay [5], 21.1 µM (active); in assay [1] it was > 112 µM (not active); in assay [2] it was > 112 µM (not active).
Consider `C=CCc1cc(/C=C2\C(=N)N3N=C(CC(=O)N4CCOCC4)SC3=NC2=O)cc(OC)c1O`, for which the EC50 in [6] was 6.76 µM (active).
For the compound `CCN1C(=O)C(=O)N(Cc2ccc(OC)c(F)c2)C1=O`, the IC50 in [7] is > 47.1 µM (inactive). Also, the EC50 in assay [6] was > 53 µM (inactive).
As for `COc1ccc(N2C(=O)c3cccc4cccc(c34)C2=O)cc1`, in [6], the EC50 is > 53 µM (inactive).
For `CSCCC(NC(=O)c1cccc(C)c1)C(=O)NNC(=O)c1cccs1` (configuration not stated), the IC50 in assay [7] was > 47.1 µM (inactive). Also, in [6], the EC50 was > 53 µM (inactive).
Turning to `O=C(c1ccccc1Nc1ccc(SC(F)F)cc1)N1CCCCC1`, the figures for the AC50 at Cytochrome P450 2C9 and at Cytochrome P450 2D6 were 2.82 µM (inconclusive) and 1.12 µM (inconclusive), respectively.
In the case of `Cn1cc(S(=O)(=O)N2CCc3ccccc32)cc1C(=O)Nc1ccc(Cl)cc1`, the EC50 in assay [1] and in assay [2] was > 112 µM (not active) throughout.
For the compound `Cc1cc(C)c2c(SCc3ccc(Cl)cc3Cl)nc(N)nc2n1`, the AC50 on Cytochrome P450 2C19 was 1 µM (inconclusive).
For the compound `Cc1ccc(C(=O)NC2CCCC2)s1`, the EC50 (with Streptococcus; on Streptokinase A; in [3]) was > 150 µM (not active) in each case.
Take `Cc1c(C(=O)N2CCCC2)sc(NC(=O)c2ccc(Cl)cc2)c1C#N`: the EC50 in assay [1] and in assay [2] was > 112 µM (not active) throughout.
`CC(C(=O)NCCN1CCOCC1)(c1ccccc1)c1ccccc1`: the IC50 in assay [7] is > 47.1 µM (inactive). Moreover, the EC50 in [6] is > 53 µM (inactive).
Regarding `NC(=O)NC(=O)COC(=O)c1ccc2c(c1)C(=O)N(Cc1ccccc1)C2=O`, the EC50 in [1] and in assay [2] was > 112 µM (not active) in each case.
With `O=C(NC(Cc1c[nH]c2ccccc12)C(=O)N/N=C/c1cccc2ccccc12)c1cccs1` (configuration not stated), the EC50 was 39.5 µM (active) in the assay on Streptococcus, > 150 µM (not active) on Streptokinase A and 5.65 µM (active) in assay [3].
In the same order, the values of `CCC(=O)Nc1nc2ccccc2n1Cc1ccccc1C` are > 150 µM (not active), > 150 µM (not active) and 2.29 µM (active).
Regarding `CCCN(CC(=O)Nc1ccccc1OC)C(=O)c1ccncc1`, the EC50 (in the assay on Streptococcus; on Streptokinase A; in [3]) was > 150 µM (not active) each time.
Turning to `Cn1c(=O)oc2cc(S(=O)(=O)N3CCN(c4ccc(F)cc4)CC3)ccc21`, the EC50 in assay [1] and in assay [2] was > 112 µM (not active) each time.
Turning to `O=C(O)c1ccc(N2CCCCS2(=O)=O)cc1`, the EC50 (in the assay with Streptococcus; at Streptokinase A; in assay [3]) was > 150 µM (not active) each time.
On to `CC1C/C(=N\NC(=S)NCc2ccccc2)CC(C)(C)C1` (configuration not stated), for which the EC50 in the assay with Streptococcus was 10.4 µM (active); on Streptokinase A it was > 150 µM (not active); in assay [3] it was 6.08 µM (active).
For `CCCCCCCCCOC(=O)C[n+]1csc(CCO)c1C`, the IC50 in assay [7] is > 47.1 µM (inactive). Besides, the EC50 in assay [6] is > 53 µM (inactive).
On to `CC1CCN(c2nc(N3CCCCC3)nc(N3CCCCC3)n2)CC1`, for which the EC50 with Streptococcus was > 150 µM (not active); on Streptokinase A it was 33.2 µM (active); in assay [3], 13.7 µM (active).
In the case of `O=C(CCOc1ccccc1)Nc1ccc([N+](=O)[O-])cc1`, the IC50 in assay [7] is > 47.1 µM (inactive). Further, in assay [6], the EC50 was > 53 µM (inactive).
For the compound `CC1=CC(C)(C)n2c(O)c(N=N)c3c(C)c(C)cc1c32`, the EC50 with Streptococcus was > 150 µM (not active); on Streptokinase A, 16.3 µM (active); in [3] it was 8.93 µM (active).
For the compound `COC1(C[S+]([O-])c2ccccc2)CCN(CCc2c[nH]c3ccc(F)cc23)CC1` (configuration not stated), the AC50 on Cytochrome P450 2C9 was 25.1 µM (inconclusive); on Cytochrome P450 2D6, 15.8 µM (inconclusive).
For `COc1ccc(-c2ccc(CN3C(C)C(=O)N(Cc4cn(Cc5ccco5)nn4)CCS3(=O)=O)cc2)cc1` (configuration not stated), the IC50 in [7] was > 47.1 µM (inactive). The EC50 in assay [6] is > 53 µM (inactive).
For the compound `CCNC(=O)C1OC(n2cnc3c(N)ncnc32)C(O)C1O` (configuration not stated), the EC50 in assay [1] was < 0.088 µM (active).
Regarding `CCOCc1cc(CN2CCCC(CNC(=O)c3ccco3)C2)ccc1OC` (configuration not stated), the IC50 in [7] was > 47.1 µM (inactive). Besides, in assay [6], the EC50 was > 53 µM (inactive).
Consider `O=C(Nc1cc(Br)ccc1O)c1cc(-c2ccc3c(c2)OCO3)on1`, for which, in assay [7], the IC50 was > 47.1 µM (inactive). The EC50 in assay [6] is > 53 µM (inactive).
For the compound `O=C1CSC(c2cn(-c3ccccc3)nc2-c2ccc3c(c2)OCCO3)N1CCN1CCOCC1` (configuration not stated), the EC50 in [1] and in assay [2] was > 112 µM (not active) each time.
Regarding `NC(=O)c1ccc(C2SCC(=O)N2Cc2ccccc2)cc1` (configuration not stated), the IC50 in assay [7] was > 47.1 µM (inactive). In addition, the EC50 in assay [6] was > 53 µM (inactive).
In the case of `c1csc(-c2csc3nc(CN4CCOCC4)nc(NCc4ccc5c(c4)OCO5)c23)c1`, the EC50 in [4] is 1.31 µM (active); with Streptococcus, > 150 µM (not active); on Streptokinase A it was 59.9 µM (active); in [3], 12.3 µM (active); in assay [5], > 60 µM (not active).
`Cc1ccc(CNC(=O)CCNC(=O)Cn2ccc3ccccc3c2=O)cc1`: in assay [7], the IC50 is > 47.1 µM (inactive). In addition, the EC50 in assay [6] was > 53 µM (inactive).
Taken in the same sequence, the figures for `COc1ccc2c(c1)/C(=C/c1cc(OC)c(OC)c(OC)c1)C(=O)N2` were > 47.1 µM (inactive) and > 53 µM (inactive).
Consider `O=C(C(NS(=O)(=O)c1cccs1)c1ccccc1)N1CCN(c2ccccc2)CC1` (configuration not stated), for which the AC50 on Cytochrome P450 2D6 is 25.1 µM (inconclusive).
As to `S=C(NCc1ccc(Cl)c(Cl)c1)Nc1ccc2c(c1)OCO2`, the IC50 in assay [7] is > 47.1 µM (inactive). For the same compound, the EC50 in assay [6] is > 53 µM (inactive).
As to `CN1CCc2c(cc(O)c(O)c2Cl)[C@H](c2cccc(Cl)c2)C1`, at Cytochrome P450 2D6, the AC50 is 31.6 µM (inconclusive).
On the same count and under the same terms, with `O=C(c1ccncc1)N1CCC2(CCCN(c3ccc(-c4ccccc4)cc3)C2)CC1` the figure was 12.6 µM (inconclusive).
Regarding `O=C(CN1C(=O)CCC1=O)Nc1nc(-c2cccs2)cs1`, the EC50 in assay [1] and in assay [2] was > 112 µM (not active) in each case.

The values above are taken from ChEMBL document CHEMBL1201862, “PubChem BioAssay data set” (2004).
